Test results reported in patent US8822519B2, “Compound with agitation effect on peroxisome proliferator-activated receptor process for its preparation and use thereof” (Zhejiang Hisun Pharmaceutical Co., Ltd., priority 2008, dated 2014).

What was measured:
[1] = system: high fat fodder obese C57BL/6J mice; assay: High fat fodder obese mice: levels of blood lipid and blood glucose; type: in vivo; set-up: HDL / GLU / TC / TG: unit not given here; settings: for GLU / HDL / TC / TG: mean ± s, n 5
Text: 3 week-old male C57BL/6J mice were chosen as experiment animals, 15 of which were randomly selected to feed with a standard fodder, and the remains were allowed to feed with a high fat fodder, with each of the mice being marked by ear-cutting. The body weights and fodder intake of the mice were weighed every week. […] […], the effects of the medicaments on the levels of blood lipid and blood glucose, body weight, and fodder intake in the animals were observed, while a glucose tolerance test was performed to investigate the effects of the medicaments on the glucose tolerance in the animals.

[2] = system: high fat fodder obese C57BL/6J mice; assay: Oral glucose tolerance test in obese mice; type: in vivo; settings: FIG. 2, in words
Method: The abscissa represents blood-sampling time points, 0 min, 30 min, 60 min, 120 min after orally given with glucose; the ordinate represents the corresponding blood glucose level (mmol/L).
(§1) 3 week-old male C57BL/6J mice were chosen as experiment animals, 15 of which were randomly selected to feed with a standard fodder, and the remains were allowed to feed with a high fat fodder, with each of the mice being marked by ear-cutting. The body weights and fodder intake of the mice were weighed every week. […] After the administration of the inventive compounds for four weeks, the effects of the medicaments on the levels of blood lipid and blood glucose, body weight, and fodder intake in the animals were observed, while a glucose tolerance test was performed to investigate the effects of the medicaments on the glucose tolerance in the animals.

[3] = system: high fat fodder obese C57BL/6J mice; assay: High fat fodder obese mice: body weight and food intake; type: in vivo
Text: as §1

[4] = system: Macaca rhesus model of hyperlipidemia; assay: Macaca rhesus model of hyperlipidemia, hematological indicators and ELISA; type: in vivo; settings: three months of administration
Text: Afterwards, efficacy of the medicament of the A-3 was confirmed in the Macaca rhesus model of hyperlipidemia. After three months of administration, blood samples were taken from the femoral vein for the determination of hematological indicators, and the determination of the insulin, apolipoprotein A-1 (apoA-1) and apolipoprotein B-100 (apoB-100) by ELISA.

Tissue distribution = type: in vivo, SD rats; settings: distribution in organs, SD rats, 10 mg/kg
Method: 18 of SD rats were fasting for 16 h with free access for water, assigned them into 3 groups with 6 animals/group with a female-to-male ratio of 1:1; they were dosed with HS060098 (10 mg/kg), then the animals were sacrificed at 1, 10, and 24 h after dosing, and the heart, liver, spleen, lung, kidney in each animal were removed rapidly. The tainted blood on the surface of the organ was washed off immediately with physiological saline. The tissue from the organ was dissected apart, washed thoroughly, blotted off, weighed, supplemented with physiological saline at 400 mg/ml, homogenized in an ice bath for 1 min, and centrifuged at 3750 rpm for 20 min. 400 μl of the supernatant was pipetted precisely, followed by addition of 40 μl of an inner standard (HS060001 used as the inner standard with a molar concentration of 5 mmol/L), diluted with 3 ml of purified water, vortexed to homogeneity, and loaded onto a column (SPE C18 column was firstly washed with 3 ml of purified water, and sequentially with 3 ml of 10% methanol for activation). The column was rinsed with 3 ml of purified water at 1 ml/min, and then eluted with 3 ml of a elutant (methanol: purified water=9:1). The eluate was collected and blow-dried under a nitrogen flow at 45° C. The residue was dissolved in 400 μl of acetonitrile and then a HPLC insert was placed and followed by injection of the sample.

[5] = Pharmacokinetics: plasma concentration-time curve; type: in vivo; settings: SD rats, gastric lavage, 50, 10 and 2 mg/kg
Method: The dosing volume was 10 ml/kg, and blood samples of 0.4-0.5 ml were taken from the vena orbitalis posterior of the waken animals at different time points post-gastric lavage and centrifuged at 5000 rpm for 10 min. 200 μL of plasma sample was precisely measured, then supplemented with 200 μL acetonitrile, vortexed to evenness, left stand for 5 min, and centrifuged (14000 rpm, 5 min). The supernatant was collected and then centrifuged again (14000 rpm, 5 min). The resulting supernatant was gathered and subjected to HPLC injection. Time points for blood sampling were respectively: 0, 0.5, 1, 2, 4, 6, 8, 10, 12, 24, 36, 48 and 72 h, and the peak area for each time point was the average of those obtained from 6 rats at the same time point. Plasma concentrations were calculated and the medicament concentration-time curve was plotted.

[6] = 2 weeks administration, 3.3 mg/kg
[7] = 2 weeks administration, 10 mg/kg
[8] = 4 weeks administration, 3.3 mg/kg
[9] = 4 weeks administration, 10 mg/kg
[10] = vs hyperlipidemia model control group

Heart (Tissue distribution): 26% | Kidney (Tissue distribution): 9% | Liver (Tissue distribution): 36% | Lung (Tissue distribution): 16% | Spleen (Tissue distribution): 13% | bioavailability [5]: 86%
Substance: 2-(3-methyl-4-(1-(3-(4-methyl-5-oxo-1-(4-trifluoromethyl-phenyl)-4,5-dihydrogen-1H-1,2,4-triazolyl))-benzyloxy)-phenylthio)-acetic acid [Compound A-3]
GLU [1, 6]: 9.52 ± 1.71 | HDL [1, 6]: 3.31 ± 0.21 | TC [1, 6]: 3.25 ± 2.76 | TG [1, 6]: 0.19 ± 0.12 | GLU [1, 7]: 6.54 ± 1.04 | HDL [1, 7]: 2.94 ± 1.42 | TC [1, 7]: 5.12 ± 0.65 | TG [1, 7]: 0.18 ± 0.02 | GLU [1, 8]: 9.54 ± 0.71 | HDL [1, 8]: 3.1 ± 0.59 | TC [1, 8]: 5.11 ± 0.31 | TG [1, 8]: 0.07 ± 0.01 | GLU [1, 9]: 6.6 ± 1.15 | HDL [1, 9]: 2.89 ± 0.28 | TC [1, 9]: 4.75 ± 0.57 | TG [1, 9]: 0.11 ± 0.07 | levels of TG and GLU in the sera from the model animals ([1]; in words): significantly decrease | glucose tolerance in the obese animals [2]: significantly improve the glucose tolerance | Food intake ([3]; column 1, 3.3 mg/kg): 5.22 g | Food intake ([3]; column 1, 10 mg/kg): 5.46 g | Food intake ([3]; column 2, 3.3 mg/kg): 5.04 g | Food intake ([3]; column 2, 10 mg/kg): 4.84 g | Food intake ([3]; column 3, 3.3 mg/kg): 6.06 g | Food intake ([3]; column 3, 10 mg/kg): 4.94 g | Food intake ([3]; column 4, 3.3 mg/kg): 5.1 g | Food intake ([3]; column 4, 10 mg/kg): 5.28 g | Food intake ([3]; column 5, 3.3 mg/kg): 6.275 g | Food intake ([3]; column 5, 10 mg/kg): 6.9 g | effect on the food intake of the animals ([3]; in words): no significant effect | body weight of the animals ([3]; in words, Table 4 and FIG. 1): significantly decrease | concentration of apoA-1 ([4]; ELISA, in words): significantly increased | concentration of apoB-100 ([4]; ELISA, in words): significantly decreased | insulin concentration ([4]; ELISA, in words): significantly decreased | high density lipoprotein (HDLc) increased [4, 10]: 67% | low density lipoprotein (LDLc) decreased [4, 10]: 38% | serum total cholesterol (TC) decreased [4, 10]: 45%
